From US11629171B2, “Beta-hairpin peptidomimetics” (POLYPHOR AG, priority 2017, dated 2023)
≈ marks a conversion by molar mass, not a printed value. Where a SMILES comes first, the peptide text is derived from it. Bridges are numbered along the chain shown (N, C = ends). Roman numbers before positions name the chains, in order. [ ]: non-standard residue; d: D form. Hiv = CC(C)[C@H](O)C(=O)O; dDab = NCC[C@@H](N)C(=O)O; Dab = NCC[C@H](N)C(=O)O; Abu = CC[C@H](N)C(=O)O; Dap = NC[C@H](N)C(=O)O

Assays:
[1] = system: Acinetobacter baumannii 872842; assay type: cell-based; conditions: 872842
Summary of the method: (§1)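 CLSI broth microdilution: inoculum ~10^6 CFU/mL in cation-adjusted Mueller-Hinton II broth, with peptide in serial two-fold dilutions plus Polysorbate 80 (0.002% final). MIC (μg/mL) is the lowest concentration without visible growth after 18-20 hours at 35° C.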

[2] = system: Acinetobacter baumannii DSM 30008; assay type: cell-based; conditions: DSM 30008
Summary of the method: as §1

[3] = system: Enterobacter cloacae 848840; assay type: cell-based; conditions: 848840
Summary of the method: as §1

Escherichia coli 926415 = assay type: cell-based; conditions: 926415
Summary of the method: as §1

[4] = system: Escherichia coli ATCC 25922; assay type: cell-based; conditions: ATCC 25922
Summary of the method: as §1

[5] = system: Klebsiella pneumoniae 968733; assay type: cell-based; conditions: 968733
Summary of the method: as §1

[6] = system: Klebsiella pneumoniae SSI #3010; assay type: cell-based; conditions: SSI #3010
Summary of the method: as §1

[7] = system: Pseudomonas aeruginosa ATCC 27853; assay type: cell-based; conditions: ATCC 27853
Summary of the method: as §1

[8] = system: human red blood cells (hRBC); assay: Hemolysis; assay type: cell-based; conditions: red cells of human, 1 h, 200
Summary of the method: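 Percent lysis of human red cells was derived from OD540 of the supernatant, referenced to 2% Triton X-100, after a 1 h, 37° C incubation of 20% (v/v) cells with 200 μg/mL peptide.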

male ICR mice = assay: Tolerability in a mouse model (Maximum Tolerated Dose assay); assay type: in vivo; conditions: 2 × 40 mg/kg s.c. at a 12-hr interval, groups of 3
Summary of the method: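 Peptides in 0.9% NaCl (pH 6.5-7.6) given s.c. at 30 or 40 mg/kg, twice 12 h apart, to groups of 3 male ICR mice (23±3 g). Acute toxic signs (mortality, convulsions, tremors, sedation) and autonomic effects (diarrhea, salivation, piloerection) observed for 30 min after each dose.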

| Compound | MIC [1] | Acinetobacter baumannii DSM 30008 MIC [2] | MIC [3] | MIC (Escherichia coli 926415) | Escherichia coli ATCC 25922 MIC [4] | MIC [5] | Klebsiella pneumoniae SSI #3010 MIC [6] | Pseudomonas aeruginosa ATCC 27853 MIC [7] | Hemolysis at 200 μg/mL [8] | Mortality and dose (male ICR mice) |
| --- | --- | --- | --- | --- | --- | --- | --- | --- | --- | --- |
| CC[C@@H]1NC(=O)[C@H](CCN)NC(=O)[C@H](Cc2ccc(O)cc2)NC(=O)[C@@H](NC(=O)[C@@H](NC(C)=O)C(C)C)CSSC[C@@H](C(=O)N[C@@H](CO)C(N)=O)NC(=O)[C@H](C(C)C)NC(=O)[C@H](CO)NC(=O)[C@H](Cc2c[nH]c3ccccc23)NC(=O)[C@H](CCC(=O)N[C@@H](CCN)C(=O)N[C@H](C(=O)N[C@@H](CN)C(=O)N[C@H]2CCNC(=O)[C@H]([C@@H](C)O)NC(=O)[C@H](CCN)NC(=O)[C@H](CCN)NC(=O)[C@H](CC(C)C)NC(=O)[C@@H](CC(C)C)NC(=O)[C@H](CCN)NC2=O)[C@@H](C)O)NC(=O)[C@@H](CCN)NC1=O [Ex. 363] (I: Ac-VCY[Dab][Abu][dDab]EWSVCS-NH2 / II: [Dab]T[Dap][Dab][Dab][dL]L[Dab][Dab]T; disulfide I:2-I:11; amide I:7-II:N; lactam II:4-II:C) | 0.0625 µg/mL (≈ 0.0261 µM) | 0.0625 µg/mL | 0.0625 µg/mL (≈ 0.0261 µM) | 0.125 µg/mL (≈ 0.0522 µM) | 0.0625 µg/mL | 0.125 µg/mL (≈ 0.0522 µM) | 0.0625 µg/mL | 0.125 µg/mL | 2% | 0/3 died at 2 × 40 mg/kg |
| CC(=O)N[C@H](C(=O)N[C@H]1CSSC[C@@H](C(=O)N[C@@H](CO)C(N)=O)NC(=O)[C@H](C(C)C)NC(=O)[C@H](CO)NC(=O)[C@H](Cc2c[nH]c3ccccc23)NC(=O)[C@H](CCC(=O)N[C@@H](CCN)C(=O)N[C@H](C(=O)N[C@@H](CN)C(=O)N[C@H]2CCNC(=O)[C@H]([C@@H](C)O)NC(=O)[C@H](CCN)NC(=O)[C@H](CCN)NC(=O)[C@H](CC(C)C)NC(=O)[C@@H](CC(C)C)NC(=O)[C@H](CCN)NC2=O)[C@@H](C)O)NC(=O)[C@@H](CCN)NC(=O)[C@H]([C@@H](C)O)NC(=O)[C@H](CCN)NC(=O)[C@H](Cc2ccc(O)cc2)NC1=O)C(C)C [Ex. 364] (I: Ac-VCY[Dab]T[dDab]EWSVCS-NH2 / II: [Dab]T[Dap][Dab][Dab][dL]L[Dab][Dab]T; disulfide I:2-I:11; amide I:7-II:N; lactam II:4-II:C) | 0.125 µg/mL (≈ 0.0518 µM) | 0.0625 µg/mL | 0.125 µg/mL (≈ 0.0518 µM) | 0.25 µg/mL (≈ 0.104 µM) | 0.0625 µg/mL | 0.125 µg/mL (≈ 0.0518 µM) | 0.0625 µg/mL | 0.125 µg/mL | <1% | 0/3 died at 2 × 40 mg/kg |
| CC(=O)N[C@H](C(=O)N[C@H]1CSSC[C@@H](C(=O)N[C@@H](CO)C(N)=O)NC(=O)[C@H](C(C)C)NC(=O)[C@H](CO)NC(=O)[C@H](Cc2c[nH]c3ccccc23)NC(=O)[C@H](CCC(=O)N[C@@H](CCN)C(=O)N[C@H](C(=O)N[C@@H](CN)C(=O)N[C@H]2CCNC(=O)[C@H]([C@@H](C)O)NC(=O)[C@H](CCN)NC(=O)[C@H](CCN)NC(=O)[C@H](CC(C)C)NC(=O)[C@@H](CC(C)C)NC(=O)[C@H](CCN)NC2=O)[C@@H](C)O)NC(=O)[C@@H](CCN)NC(=O)[C@H](Cc2c[nH]cn2)NC(=O)[C@H](CCN)NC(=O)[C@H](Cc2ccc(O)cc2)NC1=O)C(C)C [Ex. 365] (I: Ac-VCY[Dab]H[dDab]EWSVCS-NH2 / II: [Dab]T[Dap][Dab][Dab][dL]L[Dab][Dab]T; disulfide I:2-I:11; amide I:7-II:N; lactam II:4-II:C) | 0.0625 µg/mL (≈ 0.0255 µM) | 0.0625 µg/mL | 0.0625 µg/mL (≈ 0.0255 µM) | 0.125 µg/mL (≈ 0.051 µM) | 0.03125 µg/mL | 0.125 µg/mL (≈ 0.051 µM) | 0.0625 µg/mL | 0.125 µg/mL | <1% | 0/3 died at 2 × 40 mg/kg |
| CC(=O)N[C@H](C(=O)N[C@H]1CSSC[C@@H](C(=O)N[C@H](C)C(=O)N[C@@H](CO)C(N)=O)NC(=O)[C@H](C(C)C)NC(=O)[C@H](CO)NC(=O)[C@H](Cc2c[nH]c3ccccc23)NC(=O)[C@H](CO)NC(=O)[C@@H](CCN)NC(=O)[C@H](CCC(=O)N[C@@H](CCN)C(=O)N[C@H](C(=O)N[C@@H](CN)C(=O)N[C@H]2CCNC(=O)[C@H]([C@@H](C)O)NC(=O)[C@H](CCN)NC(=O)[C@H](CCN)NC(=O)[C@H](CC(C)C)NC(=O)[C@@H](CC(C)C)NC(=O)[C@H](CCN)NC2=O)[C@@H](C)O)NC(=O)[C@H](CCN)NC(=O)[C@H](Cc2ccc(O)cc2)NC1=O)C(C)C [Ex. 370] (I: Ac-VCY[Dab]E[dDab]SWSVC[dA]S-NH2 / II: [Dab]T[Dap][Dab][Dab][dL]L[Dab][Dab]T; disulfide I:2-I:11; amide I:5-II:N; lactam II:4-II:C) | 0.5 µg/mL (≈ 0.202 µM) | 0.0625 µg/mL | 0.125 µg/mL (≈ 0.0506 µM) | 0.5 µg/mL (≈ 0.202 µM) | 0.0625 µg/mL | 1 µg/mL (≈ 0.405 µM) | 0.0625 µg/mL | 0.125 µg/mL | 2% | 0/3 died at 2 × 40 mg/kg |
| CC(=O)N[C@H](C(=O)N[C@H]1CSSC[C@@H](C(=O)N[C@@H](CO)C(=O)N[C@H](CO)C(N)=O)NC(=O)[C@H](C(C)C)NC(=O)[C@H](CO)NC(=O)[C@H](Cc2c[nH]c3ccccc23)NC(=O)[C@H](CO)NC(=O)[C@@H](CCN)NC(=O)[C@H](CCC(=O)N[C@@H](CCN)C(=O)N[C@H](C(=O)N[C@@H](CN)C(=O)N[C@H]2CCNC(=O)[C@H]([C@@H](C)O)NC(=O)[C@H](CCN)NC(=O)[C@H](CCN)NC(=O)[C@H](CC(C)C)NC(=O)[C@@H](CC(C)C)NC(=O)[C@H](CCN)NC2=O)[C@@H](C)O)NC(=O)[C@H](CCN)NC(=O)[C@H](Cc2ccc(O)cc2)NC1=O)C(C)C [Ex. 375] (I: Ac-VCY[Dab]E[dDab]SWSVCS[dS]-NH2 / II: [Dab]T[Dap][Dab][Dab][dL]L[Dab][Dab]T; disulfide I:2-I:11; amide I:5-II:N; lactam II:4-II:C) | 0.0625 µg/mL (≈ 0.0251 µM) | 0.03125 µg/mL | 0.25 µg/mL (≈ 0.101 µM) | 0.125 µg/mL (≈ 0.0503 µM) | 0.03125 µg/mL | 0.125 µg/mL (≈ 0.0503 µM) | 0.0625 µg/mL | 0.125 µg/mL | <1% | 0/3 died at 2 × 40 mg/kg |
| CC[C@@H]1NC(=O)[C@@H](CC(C)C)NC(=O)[C@H](CCN)NC(=O)[C@@H](NC(=O)[C@H](CN)NC(=O)[C@@H](NC(=O)[C@H](CCN)NC(=O)CC[C@@H]2NC(=O)[C@H](CCN)NC(=O)[C@H](Cc3ccc(O)cc3)NC(=O)[C@@H](NC(=O)[C@@H](O)C(C)C)CSSC[C@@H](C(=O)N[C@@H](CO)C(=O)N[C@H](CO)C(N)=O)NC(=O)[C@H]([C@@H](C)CC)NC(=O)[C@H](CO)NC(=O)[C@H](Cc3c[nH]c4ccccc34)NC(=O)CNC(=O)[C@@H](CCN)NC2=O)[C@@H](C)O)CCNC(=O)[C@H]([C@@H](C)O)NC(=O)[C@H](CCN)NC(=O)[C@H](CCN)NC1=O [Ex. 376] (I: H-[Hiv]CY[Dab]E[dDab]GWSICS[dS]-NH2 / II: [Dab]T[Dap][Dab][Dab][dL][Abu][Dab][Dab]T; disulfide I:2-I:11; amide I:5-II:N; lactam II:4-II:C) | 0.25 µg/mL (≈ 0.104 µM) | 0.0625 µg/mL | 0.0625 µg/mL (≈ 0.026 µM) | 0.25 µg/mL (≈ 0.104 µM) | 0.0625 µg/mL | 0.5 µg/mL (≈ 0.208 µM) | 0.0625 µg/mL | 0.125 µg/mL | <1% | 0/3 died at 2 × 40 mg/kg |
| CC(C)C[C@@H]1NC(=O)[C@@H](CC(C)C)NC(=O)[C@H](CCN)NC(=O)[C@@H](NC(=O)[C@H](CN)NC(=O)[C@@H](NC(=O)[C@H](CCN)NC(=O)CC[C@@H]2NC(=O)[C@H](CCN)NC(=O)[C@H](Cc3ccc(O)cc3)NC(=O)[C@@H](NC(=O)[C@@H](O)C(C)C)CSSC[C@@H](C(=O)N[C@@H](CO)C(=O)N[C@H](C)C(N)=O)NC(=O)[C@H](C(C)C)NC(=O)[C@H](CO)NC(=O)[C@H](Cc3c[nH]c4ccccc34)NC(=O)[C@H](CO)NC(=O)[C@@H](CCN)NC2=O)[C@@H](C)O)CCNC(=O)[C@H]([C@@H](C)O)NC(=O)[C@H](CCN)NC(=O)[C@H](CCN)NC1=O [Ex. 379] (I: H-[Hiv]CY[Dab]E[dDab]SWSVCS[dA]-NH2 / II: [Dab]T[Dap][Dab][Dab][dL]L[Dab][Dab]T; disulfide I:2-I:11; amide I:5-II:N; lactam II:4-II:C) | 0.125 µg/mL (≈ 0.0515 µM) | 0.0625 µg/mL | 1 µg/mL (≈ 0.412 µM) | 0.25 µg/mL (≈ 0.103 µM) | 0.03125 µg/mL | 0.25 µg/mL (≈ 0.103 µM) | 0.0625 µg/mL | 0.125 µg/mL | <1% | 0/3 died at 2 × 40 mg/kg |
